Series [1] relates to human primary hepatocytes. Nature of the series: alamarBlue cell viability, cytotoxicity in hepatocytes. Type of series: cell-based. The note with it: 24 hours. On the procedure:
Compound 3 was tested for cytotoxicity in human primary hepatocytes in duplicate at 8 concentrations ranging from 0.03 μM to 100 μM (0.013 μg/ml to 44.95 μg/ml ).
This assay was performed using cryopreserved human primary hepatocytes (PHH). The cryopreserved PHH were seeded in collagen I coated 96-well plates in plating medium. The medium was replaced with incubation medium 2-4 hours after seeding. After overnight culture, test compound (compound 3) (0.03, 0.1, 0.3, 1, 3, 10, 30, 100 μM), reference compound (chlorpromazine) and vehicle control (1% DMSO) were added, and incubated with the cells for 24 hours followed by the addition of the alamarBlue cell viability reagent. The plates are analyzed for fluorescent intensity after alamarBlue addition. % of cell viability (% of control) was calculated by comparing the background (wells without cells) corrected fluorescent intensity in the compound treated wells and vehicle control treated wells. IC50 values were determined by non-linear regression analysis of the concentration-response curves using the Hill equation. Testing was done in duplicate.

The nature of series [2]: Pharmacokinetic analysis, tissue and plasma exposure. The note with it: male C57BL6 mice, 10 mg/kg subcutaneous administration; kidney, liver, and lung.
Description: To determine whether target concentrations/exposures of these compounds can be achieved at various target organs, exposures of compound 3 were tested in kidney, liver, spleen, lung peritoneal fluid and plasma of male C57BL6 mice (5 mice per group). Compound 3 was dosed at 10 mg/kg subcutaneously with each group having samples taken at time indicated (FIG. 7).
The next series concerns A. baumannii ATCC 17978. The series is described as follows: Checkerboard assay with novobiocin (FIGS. 2, 3, 5, 6). In kind it is cell-based, Acinetobacter baumannii. The source says:
Novobiocin is an anti-staphylococcal drug, but with limited use. The oral form of novobiocin drug has since been withdrawn from the market due to lack of efficacy. This antibiotic is often used to treat Staphylococcus aureus infection, particularly methicillin resistant S. aureus “MRSA”.

A further series deals with K. pneumoniae. Nature of the series: Checkerboard assay with rifampicin (FIG. 1). In kind it is cell-based, Klebsiella pneumoniae. The source says:
As control, pentamidine was used for its synergistic, indifferent or antagonistic interaction with rifampicin in similar conditions. […] In FIG. 1, dark wells indicated growth inhibition of K. pneumoniae and corresponding antibacterial activities of these compounds.

A short description of series [3]: Anti-fungal MIC assay, summary of second round. The note with it: read-out: Isolate MIC (100%); range over isolates of the second round of testing. In kind it is cell-based. As for the experimental part: (§1) The first round of testing included Candida parapsilosis, Candida krusei, Paecilomyces variotii, Candida albicans, Aspergillus fumigatus, and Blastomyces dermatitidis. […] The second round of testing included Candida parapsilosis, Candida krusei, Candida albicans, Candida auris, Candida glabrata, Candida guilliermondii, and Cryptococcus neoformans.
(§2) Stock solutions of the investigational agent were prepared at concentrations 100-times the highest concentration to be tested (6400 μg/ml) using dimethyl sulfoxide. Aliquots of the stock solutions were dispensed into polystyrene vials and stored at −20° C.
(§3) The synthetic medium RPMI-1640 (with glutamine, without bicarbonate, and with phenol red) was used. The RPMI was buffered to a pH of 7.0+0.1 at 25° C. with 0.165M MOPS (3-[N-morpholino] propanesulfonic acid). Sterile U-shaped 96-well cell culture plates were used to perform the MIC assays. […]
(§4) Fungal isolates were grown on Sabouraud dextrose agar (yeasts) or potato flake agar (filamentous fungi) and cells were collected after an appropriate period of growth for each species being evaluated (e.g., 48-72 hours for yeasts and 7 days for filamentous fungi). The fungi were suspended in sterile distilled water, and the densities of the fungal suspension were read using a spectrophotometer and adjusted to an appropriate optical density specific for each fungal species. […]

The subject of series [4] is Candida parapsilosis, Candida krusei, Candida albicans, Candida auris, Candida glabrata, Candida guilliermondii, and Cryptococcus neoformans. Nature of the series: Anti-fungal MIC assay, summary of second round. Type of series: cell-based. The note with it: Candida strains. On the procedure:
as §1, §2, §3, §4

Converted amounts (≈) assume the structure as drawn. “And” between values parts separate entries of the source, which are not always exact repeats. Identical values can stand only once.

Take `N=C(N)c1ccc(CC[C@H]2CCC[C@@H](CCc3ccc(C(=N)N)cc3)C2)cc1` [Compound 3, 4,4′-(2,2′-((1R,3S)-cyclohexane-1,3-diyl)bis(ethane-2,1-diyl))dibenzimidamide]: the “effect on cell viability” value in series [1] (10 μM (4.49 μg/ml) and lower concentrations) is recorded as “No inhibition on cell viability”; in series [1] (30 uM and 100 μM (13.48 μg/ml and 44.95 μg/ml)), “significant effects on cell viability”. Besides, the IC50 in series [1] (Hepatocyte, human primary hepatocytes) is 25 µM and 11.2 µg/mL. Moreover, in series [2], the “exposure relative to target concentrations for pharmacology” value is “target concentrations for pharmacology could be achieved”. Also, the “synergistic effect with novobiocin” value with A. baumannii ATCC 17978 is “clear synergistic effect”. Also, the “synergy with novobiocin as compared to pentamidine with novobiocin” value in the series on A. baumannii ATCC 17978 is on record as “superior synergy”. The minimum inhibitory concentration (MIC) in the series with A. baumannii ATCC 17978 (Acinetobacter baumannii, ATCC17978, substance alone) is 33.2 µM; in series [3], 0.5 to 8 µg/mL (≈ 1.33 to 21.2 µM). Further, the “synergistic effect with rifampicin, growth inhibition, compared to pentamidine” value with K. pneumoniae is reported as “superior synergistic effects with rifampicin than pentamidine with rifampicin”. Besides, the “anti-fungal effectiveness compared to fluconazole” value in series [4] is reported as “more effective in killing several Candida strains of interest that are not affected by fluconazole”.

These data come from patent publication US20230391727A1, “ANALOGUES OF PENTAMIDINE AND METHODS FOR TREATING INFECTIONS” (Auransa Inc., priority 2020, published 2023).
